Experimental data published in patent US20100204202A1, “DRUG FOR ALLEVIATING MOTOR COMPLICATIONS OR PSYCHIATRIC SYMPTOMS OF PARKINSON'S DISEASE” (Asubio Pharma Co., Ltd., priority 2007, published 2010).
Structures can show the parent of a compound that is named as a salt.

Experiment: Concentration in plasma after sustained subcutaneous administration (osmotic pump)
Format: in vivo
Conditions: rat, sc, after the end of the behavioral experiments
Description: Therefore, the inventors prepared Parkinson's disease model rats in the same way as in Example 4 and treated the rats by repeated doses of levodopa (twice a day, Monday to Friday) for 7 weeks. The presence or absence of the rotational behavior of each rat was recorded at approximately 1 hour after the administration of levodopa during the repeated dosing period. […] Therefore, from weeks 1 to 5 of repeated doses of levodopa, the inventors recorded the presence of any rotational behavior of the rats each time, then studied the effects of the tested substances from week 6 of repeated doses of levodopa by implanting an Aizet® osmotic pump filled with SUN N4057 or physiological saline (2ML4, volume 2 ml, flow rate 2.5 μl/hr) subcutaneously at the rats. In the 2 weeks after that, the inventors similarly continued to record the presence of any rotational behavior of the rats 1 hour after levodopa administration.
Note that the measured values of the concentration of SUN N4057 in the plasma of each group measured after the end of the behavioral experiments were 5.3±0.7 ng/mL in the SUN N4057 low dosage sustained subcutaneous administration group and 14.3±2.9 ng/mL in the high dosage sustained subcutaneous administration group.

## O=C1c2ccccc2OC=C(Cl)N1CCCCN1CC=C(c2ccccn2)CC1 [SUN N4057, 3-chloro-4,5-dihydro-4-{4-[4-(2-pyridyl)-1,2,3,6-tetrahydropyridin-1-yl]butyl}-1,4-benzoxazepin-5-one.dihydrochloride-dihydrate]
High dosage sustained subcutaneous administration group
  concentration at 2 weeks: 14.3 ± 2.9 ng/mL
Low dosage sustained subcutaneous administration group
  concentration at 2 weeks: 5.3 ± 0.7 ng/mL
